System: patients with at least moderate pain after extraction of 3 third molar teeth
Assay: Study 1: phase 2 single-dose dental pain study, analgesic efficacy and tolerability of 3 FDCs of IBU/APAP vs IBU 400 mg and placebo
Type: in vivo, human
Conditions: single oral dose, IBU dose 400 mg
Experimental: Study 1 was a phase 2, 12-hour, 5-arm, randomized, double-blind, parallel group, in-patient, placebo-controlled study designed to determine the overall analgesic efficacy of 3 different FDCs of IBU/APAP compared with IBU 400 mg and placebo.
All study procedures were in compliance with the ethical principles originating in or derived from the Declaration of Helsinki and with all International Council for Harmonization Good Clinical Practice Guidelines, as well as local regulatory requirements. All patients provided written informed consent. Eligible patients were healthy males or females aged 16-40 years, inclusive, who had undergone extraction of 3 third molar teeth (with at least 2 having been partial or complete bony mandibular impactions) and had developed at least moderate pain within 5 hours of the oral surgery. Other entry criteria included: use of only the following preoperative medications/anesthetics: topical benzocaine, a short-acting parenteral local anesthetic (mepivacaine or lidocaine) with or without a vasoconstrictor and/or nitrous oxide; no contraindications to the study or rescue medications; and being sufficiently reliable, cooperative, and intelligent to record the requested information on the analgesic questionnaire form.
Upon experiencing at least moderate pain, patients were randomized 1:3:3:3:3 to receive a single oral dose of placebo; IBU 400 mg; FDC IBU/APAP 200 mg/500 mg; FDC IBU/APAP 250 mg/500 mg; or FDC IBU/APAP 300 mg/500 mg.
Patients could receive 2 additional doses of rescue medication at the study center. Patients were permitted to take rescue medication at any time but were encouraged to wait at least 1 hour after taking study medication to allow time for the medication to exert its effect. Patients who took rescue medication remained at the study site for the full duration of the study and continued to perform assessments.
At baseline, patients rated their pain severity using a categorical and a numerical pain severity rating (PSR) scale. The categorical PSR was a 4-point scale (none, mild, moderate, severe), with each category assigned a value from 0-3, respectively. The achievement of moderate pain at baseline was confirmed by a score of >50 mm on a 100-mm visual analog pain scale. Additionally, pain was assessed using an 11-point numerical PSR (0-10; 0=none to 10=worst possible pain).
Following the administration of study medication, patients were followed and evaluated on site for 12 hours. During that time, study participants provided self-ratings of pain severity (on both categorical and numerical PSR scales as described above) and pain relief: using a 5-point categorical pain relief rating (PRR) scale (0=none, 1=a little, 2=some, 3=a lot, and 4=complete) at 0.25, 0.5, 1, 1.5, 2, 3, 4, 5, 6, 7, 8, 9, 10, 11, and 12 hours post-treatment, after taking study medication, immediately before taking rescue medication, or at time of study withdrawal (if either occurred).
Additional patient assessments included time to first perceptible relief (TFPR) and time to meaningful pain relief (TMPR) using the double-stopwatch method, in which the first stopwatch was pressed by the patient when pain relief was first perceived, and the second when that relief became meaningful. Duration of pain relief was measured by the time to treatment failure (i.e., the time of first dose of rescue medication or dropout due to lack of efficacy). At 12 hours or immediately before taking rescue medication for the first time, patients also provided a Patient Global Evaluation based on a 6-point categorical scale ranging from 0 (very poor) to 5 (excellent).
The primary endpoint was the time-weighted sum of pain relief and pain intensity difference (PID) scores from baseline (time 0) through 8 hours (SPRID[4]0-8) after dosing based on PRR and categorical PSR. […]

CC(C)Cc1ccc(C(C)C(=O)O)cc1 (centres unmarked) [IBU, 2-(4-isobutylphenyl) propionic acid]
Alveolar osteitis, treatment-emergent adverse event, %: (2.2) %
Dizziness, treatment-emergent adverse event, %: (7.6) %
Feeling hot, treatment-emergent adverse event, %: (4.3) %
Median time to first perceptible relief (TFPR): 24.9 min
Median time to meaningful relief (TMPR): 56.2 min
Median time to treatment failure (duration of relief): 10.4 h
Nausea, treatment-emergent adverse event, %: (23.9) %
TOTPAR0-2, mean (time-weighted sum of pain relief rating scores over 0-2 hours): 4.0
Tension headache, treatment-emergent adverse event, %: (4.3) %
Tremor, treatment-emergent adverse event, %: (2.2) %
Vomiting, treatment-emergent adverse event, %: (15.2) %
TOTPAR0-6, mean (0-6 hours): 14.3
TOTPAR0-8, mean (0-8 hours): 18.4
TOTPAR0-12, mean (0-12 hours): 23.9
